Laboratory results from patent US20110059916A1, “Methods and Compositions for Inducing Torpor in a Subject” (priority 2006, published 2011).

Experiments:
[1] = system: mClps; experiment: mClps (procolipase) expression after injection into light-dark mice, Northern blot / RT-PCR; format: in vivo, mouse; details: for mClps expression in the liver: injected into light-dark mice, Northern blot
From the text: Northern blot and RT-PCR analysis: Tissues were collected and frozen in liquid nitrogen and stored at about -80 C. The total RNA was isolated from mouse livers following standard procedures.^31 Twenty micrograms of total RNA was separated by electrophoresis and transferred onto a nylon membrane. The blots were hybridized with ^32P-labeled cDNA probes, washed and exposed to X-ray film as previously described.^30 Colipase probe was the complete cDNA (e.g., Genbank No: BC042935); the Gapdh probe was the Pst I fragment of rat Gapdh cDNA.^32 The primer pair used to measure colipase expression was SEQ ID NO:1 [NT] and SEQ ID NO:2 [NT], The primer pair used to measure Gapdh expression as an internal control was SEQ ID NO:3 [NT] and SEQ ID NO:4 [NT] 720 by probe for mouse pancreatic lipase related protein 2 (mPlrp2) was generated by RT-PCR using oligos LipaseF SEQ ID NO:5 [NT] and […] NO:6 [NT] from liver mRNA.

[2] = Blood glucose after 5′-AMP injection; format: in vivo, mouse; details: injections
[3] = format: in vivo, mouse
Description: (§1) They were immediately put into individual 500 ml pre-cooled beakers placed in a chamber at 4° C. […] CBT of the mice was monitored by a digital thermometer (Fisher Scientific, USA, catalog 15-077-8) via a micro stainless steel probe (1 mm) placed 1 cm into the rectal opening of the mouse. Temperature readings were taken at 15-20 sec after insertion of the probe. Once the CBT dropped to 15±1.0° C., mice were then transferred to a regular mouse cage with bedding and kept in an environment chamber at a temperature set at 14±0.5° C. or 15±0.5° C. Mice in SA were visually monitored for arousal. Once arousal was apparent, the animals were returned to standard housing. After 12 h of SA, mice were returned to 20-22° C. AET housing with food and water given ad libitum. For 4 consecutive days after SA, food intakes were determined by weight differential of fresh chow and water after every 24 h at ZT2. Body weight was measured at every ZT2. Respiration rate was determined by placing a mouse inside an open-end 50 ml tube and the number of breaths were determined by counting the number of intakes and exhales over 10 sec intervals.
AET for about 60 min. Markedly different behavioral responses to 4° C. AET were observed. […] In contrast, mice injected with 5′-AMP maintained a relaxed posture and no apparent shivering. […] As CBT dropped below 31° C., the mice retained a considerable cognitive response to tactile stimuli indicating a state of torpor (T). However, when CBT dropped to 18-22° C., the mice lost much of their locomotor mobility but had the ability to reverse flip (RF) to right themselves when they were placed on their backs or sides. When CBT dropped below 17° C., this RF ability was lost and the animals entered a state of SA. When laid on their sides or backs, the mice appeared in a suspended animation state with out-stretched limbs and low respiration rates.
These observations raised questions concerning the relative contribution of 5′-AMP, AET and the CBT in mediating SA. To address these issues, the relationship between 5′-AMP and SA was investigated. […] AET for about 60 min.
AET to await spontaneous arousal.
To identify the driver of SA, the relationship between CBT of mice and the AET was investigated. Once in SA, mice were maintained either at 14±0.5° C. or 15±0.5° C. AET. […] Next, the arousal responses of mice kept at 14±0.5° C. or 15±0.5° C. AET were compared. The majority of mice maintained at 15±0.5° C. AET could spontaneously aroused from SA (FIG. 35b). […] When these mice were subsequently placed at a higher AET, they aroused spontaneously and could enter the S stage. A period of SA longer than 14 h was associated with a decline in the ability of the animal to enter the S stage after arousal by warming. […] The underlying cause(s) of death remains unclear.
Together, the foregoing studies indicate that CBT is a major driver of SA in direct response to a low AET. To obtain additional support for this conclusion, the effects of AET on the recovery rate from SA was investigated. Groups of mice (n=4) in SA with a CBT of about 15° C. were transferred into environments with increasing AET's. The time required for each animal's CBT to return to 37° C. was measured (FIG. 35c). A direct correlation between the increase in AET and the recovery rate from SA was seen. To determine whether there were any long-term negative effects from SA, food intake and body weight were measured for several days as an indirect assessment of health status. Mice (n=4) that exited SA spontaneously were used for these studies.

[4] = Serum glucose and liver procolipase expression during SA and arousal; format: in vivo, mouse
Description: as §1, with “Experimental Procedures. Each mouse was injected intraperitoneally (IP) with the appropriate dosages of 5'-AMP (Sigma catalog# […]) dissolved in phosphate buffered saline. They were” for “They were”, “15±0.5° C. […] CBT. Mice in” for “15±0.5° C. Mice in”, “given ad labitum. For 4” for “given ad libitum. For 4”, “fresh chow every 24” for “fresh chow and water after every 24”, “sec intervals. These studies were carried out under institutionally approved animal protocol HSC-AWC 04-022. Analysis of serum glucose sample from mice at 2-3 h into SA was about 60% higher than control animals with CBT of 37° C. However, the serum blood glucose level drops to 40% below control animals at spontaneous arousal. […] A decline in blood glucose level can be reversed by increasing gluconeogenesis and reduced glucose need of major organs through β-oxidation of fatty acids. […] Liver RNA obtained from mice in normal state, SA, arousal by rewarming and spontaneous arousal was analyzed for procolipase expression by Northern blot analysis. […]” for “sec intervals.”

[5] = Heart rate at high concentrations; format: in vivo
[6] = Daily injection of 5′-AMP into morbid obese Ob/Ob mice: body weight and food intake; format: in vivo; details: Ob/Ob mouse, daily injection 5 then 2.5 umol/gbw, compared with saline
From the text: This was then decrease to 2.5 umol/gbw for the rest of the studies.

[7] = HPLC analysis of adenylates in blood, liver and muscle during SA; details: mice in SA given a second injection, red blood cells, 2 hours later
Description: HPLC analysis for adenine nucleotides: Blood was rapidly removed from mice and frozen in liquid Nitrogen. Nucleotides were extracted from frozen samples using about 0.4 N perchloric acid as previously described.^35 Briefly, about 425 μl of ice-cold about 0.4 N perchloric acid was added to frozen blood samples and mixed. After about 10 μl was removed for protein determination, the remainder was centrifuged at about 14,000×g for about 10 minutes at about 4° C. The supernatant (e.g., 305 μl) was transferred to a clean tube, neutralized with about 178 μl of about 0.6 M KHCO3/about 0.72 M KOH and acidified with about 55 μl of about 0.18 M ammonium phosphate solution (pH 5.1) and one drop of dilute phosphoric acid. The samples were centrifuged and the supernatants were stored at about −80° C. for analysis. Blood extracts and adenine nucleotides ATP, ADP, AMP, c-AMP and adenosine (e.g., from Sigma, MO, USA) were separated and quantified using reversed-phase HPLC (e.g., Waters, Millipore Corp., Bedford, Mass.) analysis on a Partisphere bonded phase reverse phase C18 cartridge column at a flow rate of 1.5 ml/minutes.^36 The mobile phase was 0.02 M NH4H2PO4, pH 5.1, with a superimposed methanol gradient: about 0% for about 0-4 minutes, about 0-8% for about 4-6 minutes, about 8-20% for about 6-8 minutes, and about 20% for about 8-18 minutes.

[8] = system: AMPK; details: rat muscle, via AMPK; cited from earlier work
[9] = cited from earlier work
[10] = IP, above 0.25 mg/gbw, chamber at 4° C.
[11] = mouse, 4° C. environment for the cooling phase

## Nc1ncnc2c1ncn2[C@@H]1O[C@H](COP(=O)(O)O)[C@@H](O)[C@H]1O [5′-AMP, 5′-adenosine monophosphate]
[1]; RT-PCR
  mClps expression in peripheral tissues: detected in all peripheral tissues sampled except the brain
[1]
  mClps expression in the liver: induced mClps expression
High dose, from about 37° C., during about the first hour, ambient room temperature 24° C.
  CBT after injection: about 27 °C
mouse, in vivo
  adverse effects on the torpid mice: No apparent adverse effects
Various dosages, wild type mice
  length of torpor: dependent on the dosage
[2]
  blood glucose levels: reduce the blood glucose levels
[3]; 0.25 to 1.5 mg/gbw, maintained at 15±0.5° C. AET until spontaneous arousal
  length of SA as a function of 5′-AMP dose: considerable overlap in the arousal time
[3]; IP, 4° C. AET for about 60 min, CBT reduction to at least 15° C.
  effective dosage (ED50) that induced at least 50% of the mice to enter SA: 0.125 mg/gbw
[3]; [10]
  CBT reached: 15±1.0 °C
  thermo-regulatory responses: blocked all thermo-regulatory responses
[3]; IP, above 0.25 mg/gbw, chamber at 4° C., CBT to 15±1.0° C.
  time for CBT drop: 60 ± 10 min
[3]; mice in SA
  CBT above ambient environmental temperature (AET) during SA: 1-2 °C
[3]; mouse
  dose that can induce deep torpor: 5-7.5 mg/g body weight
[3]; [11]
  ED50 for inducing torpor: approximately 0.15 mg/gram body weight
  ED100 for inducing torpor: approximately 0.25 mg/g body weight
[3]; mouse, in vivo
  body weight after SA: no significant difference in body weight
  food intake after SA: moderately lower food intake
[3]; normal about 120 breaths per min, CBT below 17° C.
  respiration rate in SA: reduced by at least two-thirds
[4]; 2-3 h into SA, control CBT 37° C.
  serum glucose higher than control animals: about 60%
[4]; at spontaneous arousal
  serum blood glucose below control animals: 40%
[4]; mice that had aroused spontaneously, Northern blot
  procolipase expression in liver: robust level of procolipase expression
[5]
  heart rate: slows the heart rate
[6]
  body weight: weight loss
  satiety / food intake: lower satiety
[7]
  ATP level after a second injection: steep drop in ATP level

## Nc1ncnc2c1ncn2[C@@H]1O[C@H](COP(=O)(O)OP(=O)(O)O)[C@@H](O)[C@H]1O [ADP, adenosine 5′-diphosphate]
[1]
  mClps expression in the liver: did not induce mClps expression

## NC(=O)c1ncn([C@@H]2O[C@H](CO)[C@@H](O)[C@H]2O)c1N [AICAR, 5-aminoimidazole-4-carboxamide ribonucleoside]
[8]
  fatty acid oxidation: increase fatty acid oxidation

## Nc1ncnc2c1ncn2[C@@H]1O[C@H](COP(=O)(O)OP(=O)(O)OP(=O)(O)O)[C@@H](O)[C@H]1O [ATP]
[1]
  mClps expression in the liver: did not induce mClps expression

## CCNC(=O)[C@H]1O[C@@H](n2cnc3c(N)ncnc32)[C@H](O)[C@@H]1O [NECA]
[1]
  mClps expression in the liver: did not induce colipase expression

## Nc1ncnc2c1ncn2[C@@H]1O[C@H](CO)[C@@H](O)[C@H]1O [adenosine]
[1]
  mClps expression in the liver: induced mClps expression
[9]
  water solubility: very low

## Nc1ncnc2c1ncn2[C@@H]1O[C@@H]2COP(=O)(O)O[C@H]2[C@H]1O [c-AMP]
[1]
  mClps expression in the liver: did not induce mClps expression
